Data from PubChem BioAssay (NCI).
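Protocol summary: plate cells (96-well), add compound at 5 concentrations, incubate 48 h, interpolate endpoints linearly. GI50: concentration for 50% inhibition of growth. TGI is the concentration that stops growth completely.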

Legend:
Test in all cases: growth of human tumour cells (NCI), 48 h
[1] = system: MDA-N
[2] = system: ACHN renal
[3] = system: MALME-3M melanoma
[4] = system: NCI/ADR-RES ovarian
[5] = system: TK-10 renal
[6] = system: SK-MEL-28 melanoma
[7] = system: K-562 leukemia
[8] = system: RPMI-8226 leukemia
[9] = system: HCT-116 colon
[10] = system: CCRF-CEM leukemia
[11] = system: A498 renal
[12] = system: IGROV1 ovarian
[13] = system: KM12 colon
[14] = system: HL-60(TB) leukemia
[15] = system: HCC-2998 colon
[16] = system: PC-3 prostate
[17] = system: SF-295 CNS
[18] = system: NCI-H23 lung
[19] = system: MDA-MB-231 breast
[20] = system: SNB-19 CNS
[21] = system: SN12C renal
[22] = system: MOLT-4 leukemia
[23] = system: NCI-H522 lung
[24] = system: OVCAR-3 ovarian
[25] = system: SF-268 CNS
[26] = system: SW-620 colon
[27] = system: 786-0 renal
[28] = system: DU-145 prostate
[29] = system: MCF7 breast
[30] = system: OVCAR-5 ovarian
[31] = system: SK-MEL-2 melanoma
[32] = system: U251 CNS
[33] = system: HCT-15 colon
[34] = system: SR leukemia
[35] = system: UACC-62 melanoma
[36] = system: HS 578T breast
[37] = system: HOP-62 NSCLC
[38] = system: OVCAR-8 ovarian
[39] = system: SNB-75 CNS
[40] = system: NCI-H460 lung
[41] = system: COLO 205 colon
[42] = system: LOX IMVI melanoma
[43] = system: UACC-257 melanoma
[44] = system: UO-31 renal
[45] = system: OVCAR-4 ovarian
[46] = system: NCI-H226 lung
[47] = system: SK-OV-3 ovarian
[48] = system: RXF 393 renal
[49] = system: SF-539 CNS
[50] = system: M14 melanoma
[51] = system: MDA-MB-435
[52] = system: HT29 colon
[53] = system: T-47D breast

CCC1=C(C)c2cc3[n-]c(cc4nc(c(C=O)c5[n-]c(cc1n2)c(C)c5CC)C(C)=C4CC)c(C)c3CC.[Ni+2]
GI50 [1]: > 100 µM | TGI [1]: > 100 µM | GI50 [2]: > 100 µM | TGI [2]: > 100 µM | GI50 [3]: > 100 µM | TGI [3]: > 100 µM | GI50 [4]: > 100 µM | TGI [4]: > 100 µM | GI50 [5]: > 100 µM | TGI [5]: > 100 µM | GI50 [6]: > 100 µM | TGI [6]: > 100 µM | GI50 [7]: > 100 µM | TGI [7]: > 100 µM | GI50 [8]: > 100 µM | TGI [8]: > 100 µM | GI50 [9]: > 100 µM | TGI [9]: > 100 µM | GI50 [10]: > 100 µM | TGI [10]: > 100 µM | GI50 [11]: > 100 µM | TGI [11]: > 100 µM | GI50 [12]: > 100 µM | TGI [12]: > 100 µM | GI50 [13]: > 100 µM | TGI [13]: > 100 µM | GI50 [14]: > 100 µM | TGI [14]: > 100 µM | GI50 [15]: > 100 µM | TGI [15]: > 100 µM | GI50 [16]: > 100 µM | TGI [16]: > 100 µM | GI50 [17]: > 100 µM | TGI [17]: > 100 µM | GI50 [18]: > 100 µM | TGI [18]: > 100 µM | GI50 [19]: > 100 µM | TGI [19]: > 100 µM | GI50 [20]: > 100 µM | TGI [20]: > 100 µM | GI50 [21]: > 100 µM | TGI [21]: > 100 µM | GI50 [22]: > 100 µM | TGI [22]: > 100 µM | GI50 [23]: > 100 µM | TGI [23]: > 100 µM | GI50 [24]: > 100 µM | TGI [24]: > 100 µM | GI50 [25]: > 100 µM | TGI [25]: > 100 µM | GI50 [26]: > 100 µM | TGI [26]: > 100 µM | GI50 [27]: > 100 µM | TGI [27]: > 100 µM | GI50 [28]: > 100 µM | TGI [28]: > 100 µM | GI50 [29]: > 100 µM | TGI [29]: > 100 µM | GI50 [30]: > 100 µM | TGI [30]: > 100 µM | GI50 [31]: > 100 µM | TGI [31]: > 100 µM | GI50 [32]: > 100 µM | TGI [32]: > 100 µM | GI50 [33]: > 100 µM | TGI [33]: > 100 µM | GI50 [34]: 0.022 µM | TGI [34]: > 100 µM | GI50 [35]: > 100 µM | TGI [35]: > 100 µM | GI50 [36]: > 100 µM | TGI [36]: > 100 µM | GI50 [37]: > 100 µM | TGI [37]: > 100 µM | GI50 [38]: > 100 µM | TGI [38]: > 100 µM | GI50 [39]: 93.6 µM | TGI [39]: > 100 µM | GI50 [40]: > 100 µM | TGI [40]: > 100 µM | GI50 [41]: > 100 µM | TGI [41]: > 100 µM | GI50 [42]: > 100 µM | TGI [42]: > 100 µM | GI50 [43]: > 100 µM | TGI [43]: > 100 µM | GI50 [44]: > 100 µM | TGI [44]: > 100 µM | GI50 [45]: > 100 µM | TGI [45]: > 100 µM | GI50 [46]: > 100 µM | TGI [46]: > 100 µM | GI50 [47]: > 100 µM | TGI [47]: > 100 µM | GI50 [48]: > 100 µM | TGI [48]: > 100 µM | GI50 [49]: > 100 µM | TGI [49]: > 100 µM | GI50 [50]: > 100 µM | TGI [50]: > 100 µM | GI50 [51]: > 100 µM | TGI [51]: > 100 µM | GI50 [52]: > 100 µM | TGI [52]: > 100 µM | GI50 [53]: > 100 µM | TGI [53]: > 100 µM
